In patent publication US20260286254A1, “Bleach Catalyst and Composition Comprising Said Catalyst” (Reckitt Benckiser Vanish B.V., priority 2023, published 2026):
Entries after “also recorded” stand apart in the source; their conditions may differ.

Columns and labels:
[1] = Kinetic of Tropaeolin-O degradation (UV-Vis absorbance at 430 nm); settings: statement in text on Table 5
Description: These tests were performed following the procedure described in US2012/0205581 A1. Here, Tropaeolin-O was used as sensor molecule to describe the oxidation kinetic of the different catalysts. The catalytic activity of a bleach catalyst is given by the photocatalytic degradation of tropaeolin-O under visible light irradiation.
The kinetic of tropaeolin-O degradation of each sample was determined by measuring the UV-Vis absorbance of the sample every 60 seconds for a total period of 20 minutes at 430 nm. This was done using a UV-Vis Evolution 220 FC-1135 spectrophotometer.
A base detergent system containing tropaeolin-O was prepared by adding to 1000 mL of demineralized water at 40° C., the following ingredients: • 2.92 g of Ariel Gel (as sold in the UK), • 0.088 g of Tropaeolin-O (purity ex. Sigma and used as received), • 1.75 g of Sodium percarbonate (purity: 13.3 wt. % active oxygen), • 0.10 g of bleach activator tetraacetylethylenediamine (TEAD, purity: 92 wt. % active) […]
The 430 nm absorption peak associated to the decomposition of the sensor molecule, i.e., Tropaeolin-O, after addition of a detergent system was followed over time. […] Absorbance in Table 5 is given in absorbance units (a.u.)

[2] = Stability of bleach catalysts: UV-vis absorbance at 445 nm and appearance of alkaline solutions; type: physicochemical; settings: for Absorption at 445 nm, t = 0 / Absorption at 445 nm, t = 48 h: 0.28 mM in 50 wt. % water/50 wt. % acetone; for Absorption at 445 nm, t = 0 / Appearance, t = 0: pH 11, t = 0; for Absorption at 445 nm, t = 48 h / Appearance, t = 48 h: pH 11, t = 48 h; for Appearance, t = 0 / Appearance, t = 48 h: alkaline conditions
Description: The stability of bleach catalysts having the structures shown in Table 1 was determined by preparing solutions of these compounds and measuring their UV-vis absorbance. The person skilled in the art will know how to synthesise the catalysts shown below starting from saccharine.
A solution of each compound was prepared by dissolving each compound in a mixture of 50 wt. % water and 50 wt. % acetone. The concentration of each solution was 0.28 mM.
The pH of each solution was set to 11 by adding few drops of a diluted solution of sodium percarbonate to mimic the alkaline conditions of the final formula.
The UV-vis absorption of each solution was measured just after preparing the samples (t=0), then at 2 h and 48 h using a UV-Vis Evolution 220 FC-1135 spectrophotometer using a 2 mm quartz cuvette.

Row | Absorption at 445 nm, t = 0 [2] | Absorption at 445 nm, t = 48 h [2] | Appearance, t = 0 [2] | SMILES | activity / performance (tropaeolin-O decomposition), in words [1] | stability of the bleach catalyst, in words [2] | Appearance, t = 48 h [2]
1 | <0.05 | <0.05 | Transparent | O=S1(=O)N=C(c2ccccn2)c2ccccc21 [Bleach catalyst 1, 3-(pyridin-2-yl)-1,2-benzisothiazole-1,1-dioxide] | enhanced activity | stable | Transparent
2 | <0.05 | 0.37 | Transparent | CC1=NS(=O)(=O)c2ccccc21 [Bleach catalyst A, 3-methyl-1,2-benzisothiazole-1,1-dioxide] |  |  | coloured/yellow; also recorded: Yellowing
3 | <0.05 | <0.05 | Transparent | O=S1(=O)N=C(c2ccccc2)c2ccccc21 [Bleach catalyst B, 3-phenyl-1,2-benzisothiazole-1,1-dioxide] |  |  | Transparent
4 | <0.05 | <0.05 | Transparent | CC(C)(C)C1=NS(=O)(=O)c2ccccc21 [Bleach catalyst C, 3-tert-butyl-1,2-benzisothiazole-1,1-dioxide] |  |  | Transparent
5 | <0.05 | 0.07 | Transparent | CCCCCCCCCCCCC1=NS(=O)(=O)c2ccccc21 [Bleach catalyst D, 3-lauryl-1,2-benzisothiazole-1,1-dioxide] |  |  | coloured/yellow; also recorded: Yellowing

Row | SMILES | Absorption at 445 nm, t = 0 [2] | Absorption at 445 nm, t = 48 h [2] | Appearance, t = 0 [2] | activity / performance (tropaeolin-O decomposition), in words [1] | stability of the bleach catalyst, in words [2] | Appearance, t = 48 h [2]
6 | O=S1(=O)N=C(c2cccnc2)c2ccccc21 [Bleach catalyst 2, 3-(pyridin-3-yl)-1,2-benzisothiazole-1,1-dioxide] | <0.05 | <0.05 | Transparent | enhanced activity | stable | Transparent
